# In paper PMC7782168, “Synthesis, telomerase inhibitory and anticancer activity of new 2-phenyl-4H-chromone derivatives containing 1,3,4-oxadiazole moiety” (Journal of Enzyme Inhibition and Medicinal Chemistry, 2020):
# What was measured:
# telomerase = target: T1, telomerase (Homo sapiens, UniProt O14746); assay: Telomerase activity assay using MGC-803 cells extract; type: biochemical; settings: mean ± SD
# T1 construct: assayed for telomerase activity using MGC-803 cells extract; endogenous in cells; host or cells: MGC-803 cell extract
# T1 sequence (O14746 whole entry): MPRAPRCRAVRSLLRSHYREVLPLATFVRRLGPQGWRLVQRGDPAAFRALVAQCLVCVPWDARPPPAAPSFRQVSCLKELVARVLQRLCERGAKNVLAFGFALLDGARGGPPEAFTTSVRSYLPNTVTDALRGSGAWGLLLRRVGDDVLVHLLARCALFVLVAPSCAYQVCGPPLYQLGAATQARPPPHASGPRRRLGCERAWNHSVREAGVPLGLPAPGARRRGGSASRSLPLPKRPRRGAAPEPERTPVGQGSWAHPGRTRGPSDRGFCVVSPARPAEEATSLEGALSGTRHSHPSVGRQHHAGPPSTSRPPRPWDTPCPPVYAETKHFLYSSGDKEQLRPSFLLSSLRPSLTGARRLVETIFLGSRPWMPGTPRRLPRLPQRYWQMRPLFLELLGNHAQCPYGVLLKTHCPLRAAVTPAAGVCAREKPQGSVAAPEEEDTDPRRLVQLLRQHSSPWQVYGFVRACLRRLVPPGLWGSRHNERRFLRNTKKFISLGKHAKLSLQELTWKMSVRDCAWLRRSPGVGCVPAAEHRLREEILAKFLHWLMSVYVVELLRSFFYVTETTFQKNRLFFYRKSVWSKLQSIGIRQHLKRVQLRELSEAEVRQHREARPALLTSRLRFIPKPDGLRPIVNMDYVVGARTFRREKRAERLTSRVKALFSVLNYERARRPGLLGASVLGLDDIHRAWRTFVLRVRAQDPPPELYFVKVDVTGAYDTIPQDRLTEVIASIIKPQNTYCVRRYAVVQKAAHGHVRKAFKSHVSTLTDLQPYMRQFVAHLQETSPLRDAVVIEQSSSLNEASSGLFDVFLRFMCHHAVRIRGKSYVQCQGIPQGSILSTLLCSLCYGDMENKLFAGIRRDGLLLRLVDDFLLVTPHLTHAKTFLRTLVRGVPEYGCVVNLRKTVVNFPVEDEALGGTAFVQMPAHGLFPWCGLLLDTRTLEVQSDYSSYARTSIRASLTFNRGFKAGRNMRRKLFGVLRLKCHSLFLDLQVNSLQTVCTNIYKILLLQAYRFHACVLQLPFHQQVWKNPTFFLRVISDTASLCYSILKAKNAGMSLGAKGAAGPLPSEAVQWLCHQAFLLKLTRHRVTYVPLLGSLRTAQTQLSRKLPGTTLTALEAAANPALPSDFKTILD
# T1 sequence (O60832 2-514 partner limits assumed): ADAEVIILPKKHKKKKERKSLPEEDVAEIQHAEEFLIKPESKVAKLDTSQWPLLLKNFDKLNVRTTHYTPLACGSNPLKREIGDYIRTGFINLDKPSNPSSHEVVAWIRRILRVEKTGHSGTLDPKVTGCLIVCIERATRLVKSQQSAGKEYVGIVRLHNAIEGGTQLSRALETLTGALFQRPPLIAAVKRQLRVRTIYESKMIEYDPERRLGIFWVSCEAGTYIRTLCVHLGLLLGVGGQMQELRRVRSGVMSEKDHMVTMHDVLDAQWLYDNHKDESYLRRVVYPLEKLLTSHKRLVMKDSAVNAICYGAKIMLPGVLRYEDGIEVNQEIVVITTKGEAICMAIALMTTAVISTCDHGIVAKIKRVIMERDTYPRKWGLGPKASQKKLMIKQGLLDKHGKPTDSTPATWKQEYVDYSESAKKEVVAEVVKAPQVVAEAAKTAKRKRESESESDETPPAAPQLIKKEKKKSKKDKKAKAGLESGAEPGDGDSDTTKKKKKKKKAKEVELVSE
# T1 sequence (Q9NPE3 whole entry partner): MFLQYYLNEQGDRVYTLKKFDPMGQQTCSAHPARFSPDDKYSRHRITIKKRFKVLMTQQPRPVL
# T1 sequence (Q9NX24 whole entry partner): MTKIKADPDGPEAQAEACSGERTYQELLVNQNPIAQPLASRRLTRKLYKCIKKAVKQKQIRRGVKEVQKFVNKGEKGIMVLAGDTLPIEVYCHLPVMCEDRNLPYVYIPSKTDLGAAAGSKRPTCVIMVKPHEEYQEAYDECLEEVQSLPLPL
# T1 sequence (Q9NY12 whole entry partner): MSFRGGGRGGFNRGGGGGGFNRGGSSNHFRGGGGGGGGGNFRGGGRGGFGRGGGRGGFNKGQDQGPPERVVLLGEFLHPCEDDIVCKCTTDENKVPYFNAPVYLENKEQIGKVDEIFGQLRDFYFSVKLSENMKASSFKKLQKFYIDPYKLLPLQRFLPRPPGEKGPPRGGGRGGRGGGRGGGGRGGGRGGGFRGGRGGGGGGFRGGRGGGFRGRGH
# [1] = system: MGC-803 (human gastric cancer cell); assay: In vitro anticancer (antiproliferative) MTT assay, MGC-803; type: cell-based; settings: Homo sapiens, MGC-803, mean ± SD of three experiments in triplicate
# Procedure: (§1) A375, MDA-MB-231, MGC-803, SMMC-7721, SGC-7901 and L-02 cell lines were cultured in DMEM medium supplemented with 10% (V/V) heat-inactivated fetal bovine serum (FBS) (Biological Industries, Israel) along with 100 U/mL penicillin and […] streptomycin (Beyotime, China). Cells were grown in a humidified 5% CO2 atmosphere at 37 °C and maintained in a logarithmic growth phase for all experiments.
# (§2) 2.5. Anticancer assay[23]
# [2] = system: MDA-MB-231 (human breast cancer cell); assay: In vitro anticancer (antiproliferative) MTT assay, MDA-MB-231; type: cell-based; settings: Homo sapiens, MDA-MB-231, mean ± SD of three experiments in triplicate
# Procedure: as §1, §2
# dyskerin = assay: Western blotting of dyskerin expression in MGC-803 cells; type: cell-based, human; settings: MGC-803 cells, 3, 6, 9 µM, 48 h
# Procedure: (§3) Human MGC-803 cells were lysed with RIPA lysis buffer (Beyotime, China). Whole extracts were prepared, and protein concentration was detected using a BCA protein assay kit (Beyotime, China). The protein samples were separated by SDS-PAGE and blotted onto a PVDF membrane (Millipore Corp, Billerica, MA). After blockade of non-specific protein binding, […] blots were incubated at 4 °C for 8 h with primary antibodies. After extensive washing in TBS/Tween-20, the membranes were incubated at room temperature for 1 h with secondary antibodies. After washed in TBS/Tween-20, the blots were processed with distilled water for detection of antigen using the enhanced chemiluminescence system. Proteins were visualised with ECL-chemiluminescent kit (ECL-plus, Thermo Scientific).
# (§4) Dyskerin-NOP10-NHP2, trimer proteins are the core components of telomerase, playing a key role in the stabilisation, activation and assembly of telomerase, and the loss of dyskerin function can influence telomerase activity. Dyskerin over-expression associated with a variety of tumour types has been reported. […] Meanwhile, NHP2[39] and NOP10[40], as the important components of dyskerin-NHP2-NOP10 trimer, had also been assessed together. […]
# (§5) Figure 5. […] The proteins expression of Dyskerin, NOP10 and NHP2 were analysed by Western blotting. The results are expressed as relative expression against control expression. n = 3. […]
# [3] = system: human normal liver cell (L-02); assay: Toxicity against human normal liver cells, MTT assay; type: cell-based; settings: triplicate
# Procedure: as §1, §2
# In order to determine the selective cytotoxicity of selected compounds, we subsequently conducted a proliferative inhibition assay with human normal liver cell (L-02). […] Therefore, in combination with the above points, it is quite meaningful to further explore the mechanisms of this compound.
# [4] = system: A375 (human melanoma cell); assay: In vitro anticancer (antiproliferative) MTT assay, A375; type: cell-based; settings: Homo sapiens, A-375, mean ± SD of three experiments in triplicate
# Procedure: as §1, §2
# NHP2 = assay: Western blotting of NHP2 expression in MGC-803 cells; type: cell-based, human; settings: MGC-803 cells, 3, 6, 9 µM, 48 h
# Procedure: as §3, §4, §5
# NOP10 = assay: Western blotting of NOP10 expression in MGC-803 cells; type: cell-based, human; settings: MGC-803 cells, 3, 6, 9 µM, 48 h
# Procedure: as §3, §4, §5
# MGC-803 cells [5] = assay: Cell cycle analysis by flow cytometry (PI staining); type: cell-based, human; settings: 48 h
# Procedure: For cell cycle analysis, cell cycle kit (Beyotime, China) was performed. MGC-803 cells were treated with compound A33 at different concentrations for 48 h. Untreated and treated cells were harvested, and then MGC-803 cells were washed three times using cold PBS. And then cells were fixed in 70% ethanol at −20 °C for 1 h. After fixation, cells were washed with cold PBS and stained with 0.5 ml of propidium iodide (PI) staining buffer, which contain […] RNase A and 50 µg/mL PI, at 37 °C for 30 min in the dark. Analyses were conducted on FACSVerse Flow Cytometer (Becton Dickinson). The experiments were repeated three times.
# To verify whether cell cycle arrest leads to decrease cells proliferation, we used flow cytometric analysis to measure the effect of this compound on induction of cell cycle. […] In a word, this compound can induce cell cycle arrest at G2/M phase in a concentration-dependent manner, delaying cell cycle progression, thereby resulting in cell proliferation inhibition.
# Figure 3. Cell cycle distribution induced by compound A33 was measured in MGC-803 cells. Cells were treated with compound A33 of 3, 6 and 9 μM for 48 h. Samples were analysed by flow cytometry and received results were analysed by modifit software. TEXT PRINTED IN THE PICTURE: A33: Dip G1:39.11% (3μM); Dip G2:29.46% (3μM); Dip S: 31.44% (3μM); Dip G1:35.72% (6μM); Dip G2:50.46% (6μM); Dip S: 13.82% (6μM); Dip G1:32.62% (9μM); Dip G2:55.13% (9μM); Dip S: 12.25% (9μM)
# [6] = system: SGC-7901 (human gastric cancer cell); assay: In vitro anticancer (antiproliferative) MTT assay, SGC-7901; type: cell-based; settings: Homo sapiens, SGC-7901, mean ± SD of three experiments in triplicate
# Procedure: as §1, §2
# MGC-803 cells [7] = assay: Apoptosis assay, Annexin V-FITC/PI flow cytometry; type: cell-based, human; settings: 48 h, untreated 4.27%
# Procedure: For cell apoptosis analysis, we employed annexin V-FITC/PI apoptosis detection kit (BestBio, China). MGC-803 cells in logarithmic growth phase were treated with compound A33 at different concentrations for 48 h. Cells were collected in cold PBS by centrifugation for 5 min at 1000 g. And then cells were re-suspended at a buffer (1 × 10^6 cells/mL), stained with FITC-labeled annexin V and PI for 20 min in the dark and immediately analysed on FACSVerse Flow Cytometer (Becton Dickinson).
# To determine whether compound A33 meditated inhibition of proliferation was related with apoptosis, MGC-803 cells was selected for examination. The Annexin V-FITC/PI apoptosis detection kit was used in cell apoptosis analysis. […] This is consistent with the fact that telomerase inhibitors can induce apoptosis and thus inhibit the unlimited proliferation of tumour cells.
# Figure 4. Percentage of apoptotic cells was determined in MGC-803 cells by Annexin-V FITC/PI staining. MGC-803 cells were treated with increasing concentrations of compound A33 for 48 h and stained with Annexin-V FITC/PI. Apoptotic ratio increased, accompanied with the increase of concentration. TEXT PRINTED IN THE PICTURE: A33: Q1-UL(1.08%) (3μM); Q1-UR(9.20%) (3μM); Q1-LL(87.53%) (3μM); Q1-LR(2.19%) (3μM); Q1-UL(4.60%) (6μM); Q1-UR(29.31%) (6μM); Q1-LL(38.09%) (6μM); Q1-LR(28.00%) (6μM); Q1-UL(4.54%) (9μM); Q1-UR(49.18%) (9μM); Q1-LL(8.50%) (9μM); Q1-LR(37.78%) (9μM) DOUBTS OF THE COPYIST ABOUT THIS PICTURE: A33 3μM, Q1-UR: 9.20% partly covered by plot points, first digit 9 or 8 / A33 6μM, Q1-UR: 29.31% partly covered by plot points, digits not fully certain / A33 9μM, Q1-UR: 49.18% partly covered by plot points, digits not fully certain
# [8] = system: SMMC-7721 (human hepatoma cell); assay: In vitro anticancer (antiproliferative) MTT assay, SMMC-7721; type: cell-based; settings: Homo sapiens, SMMC-7721, mean ± SD of three experiments in triplicate
# Procedure: as §1, §2
compound,measurement,setting,value
"COc1cc(OC)c2c(=O)c(OCC(=O)Nc3nnc(/C=C/c4ccccc4)o3)c(-c3cc(OC)c(OC)c(OC)c3)oc2c1 [A33, (E)-2–(5,7-dimethoxy-4-oxo-2–(3,4,5-trimethoxyphenyl)-4H-chromen-3-yloxy)-N-(5-styryl-1,3,4-oxadiazol-2-yl)acetamide]",IC50,telomerase,0.44 ± 0.09 µM
same,IC50,[1],8.76 ± 0.25 µM
same,IC50,[2],9.89 ± 0.44 µM
same,Expression level of dyskerin protein,dyskerin,reduced in a concentration-dependent manner
same,IC50,[3],2210 ± 170 µM
same,IC50,[4],11.2 ± 0.69 µM
same,Expression of NHP2,NHP2,lower level than control group
same,Expression of NOP10,NOP10,lower level than control group
same,G0/G1 phase distribution (Dip G1),MGC-803 cells [5]; 3 μM,39.11%
same,G2/M phase distribution (Dip G2),MGC-803 cells [5]; 3 μM,29.46%
same,S phase distribution (Dip S),MGC-803 cells [5]; 3 μM,31.44%
same,G0/G1 phase distribution (Dip G1),MGC-803 cells [5]; 6 μM,35.72%
same,G2/M phase distribution (Dip G2),MGC-803 cells [5]; 6 μM,50.46%
same,S phase distribution (Dip S),MGC-803 cells [5]; 6 μM,13.82%
same,G0/G1 phase distribution (Dip G1),MGC-803 cells [5]; 9 μM,32.62%
same,G2/M phase distribution (Dip G2),MGC-803 cells [5]; 9 μM,55.13%
same,S phase distribution (Dip S),MGC-803 cells [5]; 9 μM,12.25%
same,Increase of the G2/M phase distribution versus untreated,"MGC-803 cells [5]; increasing concentrations (3, 6, 9 µM), from 9.76 to 55.13%",45.37%
same,IC50,[6],10 ± 0.51 µM
same,Percentage of AnnexinV-FITC binding MGC-803 cells,"MGC-803 cells [7]; 3 μM (first of increasing concentrations, Figure 4)",11.39%
same,Percentage of AnnexinV-FITC binding MGC-803 cells,"MGC-803 cells [7]; 6 μM (second of increasing concentrations, Figure 4)",57.31%
same,Percentage of AnnexinV-FITC binding MGC-803 cells,"MGC-803 cells [7]; 9 μM (third of increasing concentrations, Figure 4)",86.96%
same,IC50,[8],9.67 ± 0.82 µM
